# What was measured:
# SK-BR-3 cancer cells = assay: Inhibitory activity against proliferation of SK-BR-3 cancer cells (CellTiter-Glo); type: cell-based; details: Homo sapiens, SK-BR-3, 120 h, ErbB2-overexpressing SK-BR-3 cells, 120 hours after treatment
# How it was run: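 GI50 derived from % growth relative to control, measured by CellTiter-Glo luminescence after 120 h compound exposure (12 concentrations, 0.2 nM-5 μM final, n=3). BT-474 grown in RPMI-1640/20% FBS, SK-BR-3 in McCOY'S 5A/10% FBS; seeding 48 h pre-treatment.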
# BT-474 cancer cells = assay: Inhibitory activity against proliferation of BT-474 cancer cells (CellTiter-Glo); type: cell-based; details: Homo sapiens, BT-474 ErbB2-overexpressing cancer cells, 120 hours after treatment
# Experimental: To evaluate the inhibitory activity of a compound according to the present invention against the proliferation of ErbB2-overexpressing cancer cells, the following experiment were performed.
# 10% FBS-added McCOY'S 5A was used for SK-BR-3 cancer cells. 20% FBS-added RPMI-1640 was used for BT-474 cancer cells. Transduced Ba/F3 cells were cultured in a RPMI-1640 medium to which 1 μg/ml puromycin (Invitrogen) was added.
# 48 hours before compound treatment, each type of the SK-BR-3 and BT-474 cells were seeded at 5,000 cells/well in a white clear bottom 96 well plate (Corning). The compound was diluted in dimethyl sulfoxide (SK-BR-3: 3-fold dilution, a total of 12 concentrations, BT-474: […], a total of 12 concentrations) and injected at 1 μl to have the final concentration of 0.2 nM to 5 μM. As for measurement of live cells, 120 hours after treatment with the compound, a CellTiter-Glo luminescent cell-viability reagent (Promega) was used to store the cells at room temperature for 10 minutes, followed by measurement of luminescence using a reader (SynergyNeo, Biotek). Each test was repeated three times.
# The result values were calculated as a cell growth rate (%) compared to the control group. A graph was plotted using the GraphPad Prism version 8.3.0 program, and GI50 values were calculated.
SMILES,GI50 (SK-BR-3 cancer cells) [µM],GI50 (BT-474 cancer cells) [µM]
"C=CC(=O)Nc1cc(Nc2cc(N3OCCC3c3cccc(-c4ccc(C)s4)c3)ncn2)c(OC)cc1N(C)CCN(C)C (stereo not drawn) [Example 213, N-(2-((2-(dimeth-ylamino)ethyl)-(methyl)amino)-4-methoxy-5-((6-(3-(3-(5-methylthio-phen-2-yl)phenyl)-isoxazolidin-2-yl)-pyrimidin-4-yl)-amino)phenyl)-acrylamide]",0.05 to 0.5,0.05 to 0.5
"C=CC(=O)Nc1cc(Nc2cc(N3OCC[C@@H]3c3cc(F)cc(Oc4cccc(F)c4)c3)ncn2)c(OC)cc1N1CCN(C)[C@H](C)C1 [Example 221, N-(2-((R)-3,4-dimethylpiper-azin-1-yl)-5-((6-((R)-3-(3-fluoro-5-(3-fluorophen-oxy)phenyl)-isox-azolidin-2-yl)pyr-imidin-4-yl)-amino)-4-methoxy-phenyl)acrylamide]",< 0.05,< 0.05
"C=CC(=O)Nc1cc(Nc2cc(N3OCC[C@@H]3c3cc(F)cc(Oc4cccc(F)c4)c3)ncn2)c(OC)cc1N1CCN(C)[C@@H](C)C1 [Example 223, N-(2-((S)-3,4-dimethylpiperazin-1-yl)-5-((6-((R)-3-(3-fluoro-5-(3-fluorophenoxy)-phenyl)isoxazol-idin-2-yl)pyrim-idin-4-yl)amino)-4-methoxyphen-yl)acrylamide]",< 0.05,< 0.05
"C=CC(=O)Nc1cc(Nc2cc(N3OCC[C@@H]3c3cc(F)cc(Oc4cccc(F)c4)c3)ncn2)c(OC)cc1N1CCC(N(C)C)CC1 [Example 224, (R)-N-(2-(4-(dimethylamino)-piperidin-1-yl)-5-((6-(3-(3-fluoro-5-(3-fluorophenoxy)-phenyl)isoxazol-idin-2-yl)pyrim-idin-4-yl)amino)-4-methoxyphen-yl)acrylamide]",< 0.05,< 0.05
"C=CC(=O)Nc1cc(Nc2cc(N3OCC[C@@H]3c3cccc(Oc4cc(F)cc(F)c4)c3)ncn2)c(OC)cc1N1CCN(C)CC1 [Example 225, (R)-N-(5-((6-(3-(3-(3,5-difluoro-phenoxy)phenyl)-isoxazolidin-2-yl)pyrimidin-4-yl)amino)-4-methoxy-2-(4-methylpiperazin-1-yl)phenyl)-acrylamide]",< 0.05,< 0.05
"C=CC(=O)Nc1cc(Nc2cc(N3OCC[C@@H]3c3cccc(OCc4ccccc4)c3)ncn2)c(OC)cc1N(C)CCN(C)C [Example 227, (R)-N-(5-((6-(3-(3-(benzyloxy)-phenyl)isoxazol-idin-2-yl)pyrim-idin-4-yl)amino)-2-((2-(dimethyl-amino)ethyl)-(methyl)amino)-4-methoxyphen-yl)acrylamide]",< 0.05,< 0.05
"C=CC(=O)Nc1cc(Nc2cc(N3OCC[C@@H]3c3cccc(-c4cccc(F)c4F)c3)ncn2)c(OC)cc1N1CCN(C2COC2)CC1 [Example 340, (R)-N-(5-((6-(3-(2′,3′-difluoro-[1,1′-biphenyl]-3-yl)isoxazolidin-2-yl)pyrimidin-4-yl)-amino)-4-methoxy-2-(4-(oxetan-3-yl)-piperazin-1-yl)-phenyl)acrylamide]",–,< 0.05
"C=CC(=O)Nc1cc(Nc2cc(N3OCC[C@@H]3c3cccc(-c4cccc(F)c4)c3)ncn2)c(OC)cc1N1CC2(C1)CN(C1COC1)C2 [Example 341, (R)-N-(5-((6-(3-(3′-fluoro-[1,1′-biphenyl]-3-yl)-isoxazolidin-2-yl)-pyrimidin-4-yl)-amino)-4-methoxy-2-(6-(oxetan-3-yl)-2,6-diazaspiro-[3.3]heptan-2-yl)-phenyl)acrylamide]",–,< 0.05
"C=CC(=O)Nc1cc(Nc2cc(N3OCC[C@@H]3c3cccc(-c4cccc(C(=O)N(C)C)c4)c3)ncn2)c(OC)cc1N1CCN(C)CC1 [Example 342, (R)-3′-(2-(6-((5-acrylamido-2-methoxy-4-(4-methylpiperazin-1-yl)phenyl)-amino)pyrimidin-4-yl)isoxazolidin-3-yl)-N,N-dimeth-yl-[1,1′-biphenyl]-3-carboxamide]",–,< 0.05
"C=CC(=O)Nc1cc(Nc2cc(N3OCC[C@@H]3c3cccc(-c4cccc(F)c4)c3)ncn2)c(OC)cc1N1CCC2(CC1)CN(C)C2 [Example 343, (R)-N-(5-((6-(3-(3′-fluoro-[1,1′-biphenyl]-3-yl)-isoxazolidin-2-yl)-pyrimidin-4-yl)-amino)-4-methoxy-2-(2-methyl-2,7-diazaspiro[3.5]-nonan-7-yl)phen-yl)acrylamide]",–,< 0.05

# Now from value to compound:
GI50 (SK-BR-3 cancer cells) [µM],GI50 (BT-474 cancer cells) [µM],SMILES
< 0.05,< 0.05,"C=CC(=O)Nc1cc(Nc2cc(N3OCC[C@@H]3c3cccc(-c4ccccc4)c3)ncn2)c(OC)cc1N(C)CCN(C)C [Example 173, (R)-N-(5-((6-(3-([1,1′-biphenyl]-3-yl)isoxazolidin-2-yl)pyrimidin-4-yl)amino)-2-((2-(dimethylamino)-ethyl)(methyl)-amino)-4-methoxy-phenyl)acrylamide]"
< 0.05,< 0.05,"C=CCN1CCN(c2cc(OC)c(Nc3cc(N4OCC[C@@H]4c4cccc(-c5ccccc5)c4)ncn3)cc2NC(=O)C=C)CC1 [Example 174, (R)-N-(5-((6-(3-([1,1′-biphenyl]-3-yl)isoxazolidin-2-yl)pyrimidin-4-yl)amino)-2-(4-allylpiperazin-1-yl)-4-methoxy-phenyl)acrylamide]"
< 0.05,< 0.05,"C=CC(=O)Nc1cc(Nc2cc(N3OCC[C@@H]3c3cccc(-c4ccccc4)c3)ncn2)c(OC)cc1N1CCO[C@@H](C)C1 [Example 175, N-(5-((6-((R)-3-([1,1′-biphenyl]-3-yl)isoxazolidin-2-yl)pyrimidin-4-yl)-amino)-4-methoxy-2-((S)-2-methyl-morpholino)phen-yl)acrylamide]"
< 0.05,< 0.05,"C=CC(=O)Nc1cc(Nc2cc(N3OCC[C@@H]3c3cccc(-c4ccccc4)c3)ncn2)c(OC)cc1N1CCO[C@H](C)C1 [Example 176, N-(5-((6-((R)-3-([1,1′-biphenyl]-3-yl)isoxazolidin-2-yl)pyrimidin-4-yl)-amino)-4-methoxy-2-((R)-2-methyl-morpholino)phen-yl)acrylamide]"
< 0.05,< 0.05,"C=CC(=O)Nc1cc(Nc2cc(N3OCCC3c3cccc(-c4cnc5ccnn5c4)c3)ncn2)c(OC)cc1N1CCN(C)CC1 (stereo not drawn) [Example 201, N-(4-methoxy-2-(4-methylpiper-azin-1-yl)-5-((6-(3-(3-(pyrazolo-[1,5-a]pyrimidin-6-yl)phenyl)-isoxazolidin-2-yl)-pyrimidin-4-yl)-amino)phenyl)-acrylamide]"
< 0.05,< 0.05,"C=CC(=O)Nc1cc(Nc2cc(N3OCC[C@@H]3c3cccc(-c4ccccc4)c3)ncn2)c(OC)cc1N1CCN(CC)CC1 [Example 216, (R)-N-(5-((6-(3-([1,1′-biphenyl]-3-yl)isoxazolidin-2-yl)pyrimidin-4-yl)-amino)-2-(4-ethyl-piperazin-1-yl)-4-methoxyphenyl)-acrylamide]"
< 0.05,< 0.05,"C=CC(=O)Nc1cc(Nc2cc(N3OCC[C@@H]3c3cc(F)cc(Oc4ccn(C)n4)c3)ncn2)c(OC)cc1N1CCC(N2CCN(C3CC3)CC2)CC1 [Example 219, (R)-N-(2-(4-(4-cyclopropylpiper-azin-1-yl)piper-idin-1-yl)-5-((6-(3-(3-fluoro-5-((1-methyl-1H-pyr-azol-3-yl)oxy)-phenyl)isoxazol-idin-2-yl)pyrim-idin-4-yl)amino)-4-methoxyphen-yl)acrylamide]"

# Source: patent publication US20240262815A1, “HETEROARYL DERIVATIVE, METHOD FOR PREPARING SAME, AND PHARMACEUTICAL COMPOSITION COMPRISING SAME AS ACTIVE INGREDIENT” (VORONOI INC., priority 2021, published 2024)
